According to patent EP4471049A1 (Zealand Pharma A/S, priority 2023, dated 2024):
*1 amine or outer side, *2 acyl side, *3 side chain or, on linkers, in order; H or OH if unused. Where a SMILES comes first, the peptide text is derived from it. Bridges are numbered along the chain shown (N, C = ends). [ ]: non-standard residue; d: D form. 2Nal = N[C@@H](Cc1ccc2ccccc2c1)C(=O)O; AEF = NCCOc1ccc(C[C@H](N)C(=O)O)cc1; X1 = O=C(Cc1ccc(CN[*:1])cc1)[*:2]; 3Pal = N[C@@H](Cc1cccnc1)C(=O)O; αMeL = CC(C)C[C@](C)(N)C(=O)O; Dab = NCC[C@H](N)C(=O)O

Legend:
[1] = Peptide stability in simulated gastric fluid (SGF); type: in vitro ADME; conditions: 37 °C, pH 1.2, porcine pepsin 3.2 g/L; for remaining at 4 h, 10 µM / remaining at 1 h, 10 µM: pig, simulated gastric fluid (SGF) with porcine pepsin
Experimental: (§1) SGF was prepared by dissolving sodium chloride (0.2 g) in 50 mL of water. A volume of 0.7 mL of 10 M HCl was added to adjust the pH of the solution to 1.2 and the volume made up to 100 mL with water. […] SIF was prepared by dissolving monobasic potassium phosphate (0.68 g) in 50 mL of water and adjusting the pH to 6.8 with 1 M NaOH. The volume was subsequently made up to 100 mL with water. 200 mg porcine pancreatin (P1625, Sigma Aldrich) was gently dissolved into 20 mL preheated (37 °C) solution (10 g/L) immediately prior to the incubation.
(§2) The incubation was performed at 37 °C with gentle shaking. […] After the last timepoint, the sampling plate was mixed for 10 min on a shaking table and centrifuged 10 min at 2200 g. 70 µL resulting supernatant was diluted with 150 µL water, mixed and centrifugated before analysis by liquid chromatography high resolution mass spectrometry. […] Percent remaining at each timepoint was calculated relative to timepoint zero based on absolute peak areas.
Compounds with a SGF stability (after 4 h) above 70% are considered highly SGF stable. […] Table 3-4: SGF data

[2] = Peptide stability in simulated intestinal fluid (SIF); type: in vitro ADME; conditions: 37 °C, pH 6.8, porcine pancreatin 10 g/L, 10 µM; for remaining at 4 h, 10 µM / remaining at 1 h, 10 µM: pig, simulated intestinal fluid (SIF) with porcine pancreatin; for remaining at 4 h, 10 µM: read-out: SIF (% remaining 4 h)
Experimental: as §1, §2
Compounds with a SIF stability (after 4 h) above 70% are considered highly SIF stable.

human IL-23R = molecular target: T1, human IL-23R (Homo sapiens, UniProt Q5VWK5); experiment: biochemical; conditions: for Emax: read-out: % displacement (hIL-23R binding)
T1 sequence (Q5VWK5 22-629): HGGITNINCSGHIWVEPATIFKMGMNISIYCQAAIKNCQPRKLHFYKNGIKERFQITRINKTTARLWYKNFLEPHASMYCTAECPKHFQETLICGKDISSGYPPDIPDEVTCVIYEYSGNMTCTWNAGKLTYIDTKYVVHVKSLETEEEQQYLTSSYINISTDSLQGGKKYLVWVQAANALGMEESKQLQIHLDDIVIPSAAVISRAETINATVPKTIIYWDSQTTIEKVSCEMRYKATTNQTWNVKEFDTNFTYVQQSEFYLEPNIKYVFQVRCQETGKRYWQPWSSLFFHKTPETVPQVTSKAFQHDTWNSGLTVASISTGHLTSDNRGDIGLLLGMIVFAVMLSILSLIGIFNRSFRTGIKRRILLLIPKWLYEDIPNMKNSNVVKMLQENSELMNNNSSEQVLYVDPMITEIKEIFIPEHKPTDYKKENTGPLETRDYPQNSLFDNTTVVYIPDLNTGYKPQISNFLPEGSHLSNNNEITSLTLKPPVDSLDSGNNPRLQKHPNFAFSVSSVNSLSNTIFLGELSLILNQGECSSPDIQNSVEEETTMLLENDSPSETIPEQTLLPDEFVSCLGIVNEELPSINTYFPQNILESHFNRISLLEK
Summary of the method: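 Membranes from HEK293 cells stably expressing Nluc-tagged human IL-23R were incubated 2 h at room temperature with test compound and a fluorophore-labelled tracer. After substrate addition, loss of BRET (TAMRA over luciferase emission) reported tracer displacement. A 4PL fit gave IC50 values.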

| % displacement (hIL-23R binding) (human IL-23R) | remaining at 4 h, 10 µM ([1]; 4 h) | remaining at 4 h, 10 µM ([2]; 4 h) | Emax (human IL-23R) | IC50 (human IL-23R) | remaining at 1 h, 10 µM ([1]; 1 h) | remaining at 1 h, 10 µM ([2]; 1 h) | Structure (SMILES) | SGF (% remaining 1 h) ([1]; 1 h, 10 µM) | SGF (% remaining 4 h) ([1]; 4 h, 10 µM) | SIF (% remaining 1 h) ([2]; 1 h) | SIF (% remaining 4 h) ([2]; 4 h) |
| --- | --- | --- | --- | --- | --- | --- | --- | --- | --- | --- | --- |
|  | 88% | 91% | 93% |  |  |  | CNC(=O)[C@H](Cc1cccnc1)NC(=O)[C@H](CCN)NC(=O)[C@@H]1CCC(=O)NCc2ccc(cc2)CC(=O)N[C@@H](CO)C(=O)N[C@H]2CCC(=O)NCC[C@H](NC(=O)[C@H](CCNC(C)=O)NC(=O)[C@H](Cc3c[nH]c4ccccc34)NC2=O)C(=O)N[C@@H](Cc2ccc(OCCN)cc2)C(=O)N[C@@H](Cc2ccc3ccccc3c2)C(=O)N[C@@](C)(CC(C)C)C(=O)N1 [Compound 25, [4-Aminomethyl-phenylacetyl](1c)*SE(2c)W[Dab(Ac)][Dab](2c)[Y(2-aminoethoxy)][2-Nal][2-Me-Leu]E(1c)[Dab][3-(3-Pyridyl)-Ala]-[NHMe]] ([X1]SEW[Dab](Ac)[Dab][AEF][2Nal][αMeL]E[Dab][3Pal]-NHMe; lactam 3-6, N-10) |  |  |  |  |
| 98% |  | 65% |  | 0.027 nM | 96% |  | CCCC[C@H](NC(=O)[C@@H]1CCC(=O)NCc2ccc(cc2)CC(=O)N[C@@H](CO)C(=O)N[C@H]2CCC(=O)NCC[C@H](NC(=O)[C@H](CCC(N)=O)NC(=O)[C@H](Cc3c[nH]c4ccccc34)NC2=O)C(=O)N[C@@H](Cc2ccc(OCCN)cc2)C(=O)N[C@@H](Cc2ccc3ccccc3c2)C(=O)N[C@@](C)(CC(C)C)C(=O)N1)C(=O)N[C@@H](Cc1cccnc1)C(=O)NC [Compound 32, [4-Aminomethyl-phenylacetyl](1c)*SE(2c)WQ[Dab](2c)[Y(2-aminoethoxy)][2-Nal][2-Me-Leu]E(1c)[Nle][3-(3-Pyridyl)-Ala]-[NHMe]] |  |  |  |  |
| 94% |  | 55% |  | 0.014 nM | 96% |  | CNC(=O)[C@H](Cc1cccnc1)NC(=O)[C@H](CCO)NC(=O)[C@@H]1CCC(=O)NCc2ccc(cc2)CC(=O)N[C@@H](CO)C(=O)N[C@H]2CCC(=O)NCC[C@H](NC(=O)[C@H](CCC(N)=O)NC(=O)[C@H](Cc3c[nH]c4ccccc34)NC2=O)C(=O)N[C@@H](Cc2ccc(OCCN)cc2)C(=O)N[C@@H](Cc2ccc3ccccc3c2)C(=O)N[C@@](C)(CC(C)C)C(=O)N1 [Compound 36, [4-Aminomethyl-phenylacetyl](1c)*SE(2c)WQ[Dab](2c)[Y(2-aminoethoxy)][2-Nal][2-Me-Leu]E(1c)[hSer][3-(3-Pyridyl)-Ala]-[NHMe]] |  |  |  |  |
| 95% |  | 69% |  | 0.013 nM | 97% | 78% | CNC(=O)[C@H](Cc1cccnc1)NC(=O)[C@H](COC)NC(=O)[C@@H]1CCC(=O)NCc2ccc(cc2)CC(=O)N[C@@H](CO)C(=O)N[C@H]2CCC(=O)NCC[C@H](NC(=O)[C@H](CCC(N)=O)NC(=O)[C@H](Cc3c[nH]c4ccccc34)NC2=O)C(=O)N[C@@H](Cc2ccc(OCCN)cc2)C(=O)N[C@@H](Cc2ccc3ccccc3c2)C(=O)N[C@@](C)(CC(C)C)C(=O)N1 [Compound 37, [4-Aminomethyl-phenylacetyl](1c)*SE(2c)WQ[Dab](2c)[Y(2-aminoethoxy)][2-Nal][2-Me-Leu]E(1 c)[Ser(OMe)][3-(3-Pyridyl)-Ala]-[NHMe]] |  |  |  |  |
| 102% | 91% | 65% |  | 0.066 nM |  |  | CNC(=O)[C@H](Cc1cccnc1)NC(=O)[C@@H](CO)NC(=O)[C@@H]1CCC(=O)NCc2ccc(cc2)CC(=O)N[C@@H](CO)C(=O)N[C@H]2CCC(=O)NCC[C@H](NC(=O)[C@H](CCC(N)=O)NC(=O)[C@H](Cc3c[nH]c4ccccc34)NC2=O)C(=O)N[C@@H](Cc2ccc(OCCN)cc2)C(=O)N[C@@H](Cc2ccc3ccccc3c2)C(=O)N[C@@](C)(CC(C)C)C(=O)N1 [Compound 38, [4-Aminomethyl-phenylacetyl](1c)*SE(2c)WQ[Dab](2c)[Y(2-aminoethoxy)][2-Nal][2-Me-Leu]E(1c)[{d}S][3-(3-Pyridyl)-Ala]-[NHMe]] |  |  |  |  |

Continued, molecule first:

| Structure (SMILES) | % displacement (hIL-23R binding) (human IL-23R) | remaining at 4 h, 10 µM ([1]; 4 h) | remaining at 4 h, 10 µM ([2]; 4 h) | Emax (human IL-23R) | IC50 (human IL-23R) | remaining at 1 h, 10 µM ([1]; 1 h) | remaining at 1 h, 10 µM ([2]; 1 h) | SGF (% remaining 1 h) ([1]; 1 h, 10 µM) | SGF (% remaining 4 h) ([1]; 4 h, 10 µM) | SIF (% remaining 1 h) ([2]; 1 h) | SIF (% remaining 4 h) ([2]; 4 h) |
| --- | --- | --- | --- | --- | --- | --- | --- | --- | --- | --- | --- |
| CC(C)C[C@@H]1NC(=O)[C@H](Cc2c[nH]c3ccccc23)NC(=O)[C@H](Cc2c[nH]c3ccccc23)NC(=O)[C@@H]2CSCC(=O)CSC[C@H](NC(=O)[C@H](CO)NC(=O)[C@@H](NC(=O)[C@@H](N)CC(=O)O)CSCC(=O)CSC[C@@H](C(=O)N[C@@H](CCCNC(=N)N)C(N)=O)NC1=O)C(=O)N[C@@H](Cc1c[nH]c3ccccc13)C(=O)N[C@@H](CCC(N)=O)C(=O)N2 (single isomer, unassigned) [I3 (isomer 3), H-DC(1a)SC(2a)WQC(2a)WWLC(1a)R-[NH2], reference compound] |  |  |  |  |  |  |  | 5% | 0% | 0% | 0% |
| CC(C)C[C@]1(C)NC(=O)[C@H](Cc2ccc3ccccc3c2)NC(=O)[C@H](Cc2ccc(OCCN)cc2)NC(=O)[C@@H]2CCNC(=O)CC[C@H](NC(=O)[C@H](CO)NC(=O)Cc3ccc(cc3)CNC(=O)CC[C@@H](C(=O)N[C@@H](CCN)C(=O)N[C@@H](Cc3cn(C)cn3)C(N)=O)NC1=O)C(=O)N[C@@H](Cc1c[nH]c3ccccc13)C(=O)N[C@@H](CCC(N)=O)C(=O)N2 [Compound 14, [4-Aminomethyl-phenylacetyl](1c)*SE(2c)WQ[Dab](2c)[Y(2-aminoethoxy)][2-Nal][2-Me-Leu]E(1c)[Dab][H(Me)]-[NH2]] | 102% | 82% | 75% |  |  |  |  |  |  |  |  |
| CNC(=O)[C@H](Cc1cccnc1)NC(=O)[C@H](CCC(N)=O)NC(=O)[C@@H]1CCC(=O)NCc2ccc(cc2)CC(=O)N[C@@H](CO)C(=O)N[C@H]2CCC(=O)NCC[C@H](NC(=O)[C@H](CCC(N)=O)NC(=O)[C@H](Cc3c[nH]c4ccccc34)NC2=O)C(=O)N[C@@H](Cc2ccc(OCCN)cc2)C(=O)N[C@@H](Cc2ccc3ccccc3c2)C(=O)N[C@@](C)(CC(C)C)C(=O)N1 [Compound 33, [4-Aminomethyl-phenylacetyl](1c)*SE(2c)WQ[Dab](2c)[Y(2-aminoethoxy)][2-Nal][2-Me-Leu]E(1c)Q[3-(3-Pyridyl)-Ala]-[NHMe]] ([X1]SEWQ[Dab][AEF][2Nal][αMeL]EQ[3Pal]-NHMe; lactam 3-6, N-10) |  | 93% | 69% | 92% | 0.014 nM |  |  |  |  |  |  |
| CNC(=O)[C@H](Cc1cccnc1)NC(=O)[C@H](Cc1c[nH]cn1)NC(=O)[C@@H]1CCC(=O)NCc2ccc(cc2)CC(=O)N[C@@H](CO)C(=O)N[C@H]2CCC(=O)NCC[C@H](NC(=O)[C@H](CCC(N)=O)NC(=O)[C@H](Cc3c[nH]c4ccccc34)NC2=O)C(=O)N[C@@H](Cc2ccc(OCCN)cc2)C(=O)N[C@@H](Cc2ccc3ccccc3c2)C(=O)N[C@@](C)(CC(C)C)C(=O)N1 [Compound 34, [4-Aminomethyl-phenylacetyl](1c)*SE(2c)WQ[Dab](2c)[Y(2-aminoethoxy)][2-Nal][2-Me-Leu]E(1c)H[3-(3-Pyridyl)-Ala]-[NHMe]] ([X1]SEWQ[Dab][AEF][2Nal][αMeL]EH[3Pal]-NHMe; lactam 3-6, N-10) | 90% |  | 56% |  | 0.013 nM | 96% | 87% |  |  |  |  |
| CNC(=O)[C@H](Cc1cccnc1)NC(=O)C1(NC(=O)[C@@H]2CCC(=O)NCc3ccc(cc3)CC(=O)N[C@@H](CO)C(=O)N[C@H]3CCC(=O)NCC[C@H](NC(=O)[C@H](CCC(N)=O)NC(=O)[C@H](Cc4c[nH]c5ccccc45)NC3=O)C(=O)N[C@@H](Cc3ccc(OCCN)cc3)C(=O)N[C@@H](Cc3ccc4ccccc4c3)C(=O)N[C@@](C)(CC(C)C)C(=O)N2)CCOCC1 [Compound 35, [4-Aminomethyl-phenylacetyl](1c)*SE(2c)WQ[Dab](2c)[Y(2-aminoethoxy)][2-Nal][2-Me-Leu]E(1c)[THP][3-(3-Pyridyl)-Ala]-[NHMe]] | 101% | 94% |  |  |  |  | 110% |  |  |  |  |
